Test results: patent US20060167098A1, “Method for the treatment of diseases linked to an accumulation of triglycerides and cholesterol” (Institut National De La Sante ET De LA Recherche Medicale …, priority 2003, published 2006)

Key:
Assay type in all cases: in vivo
[1] = Plasma glucose in lean mice, standard diet, 6 weeks, not fasted; conditions: 100 mg/kg/day 6 weeks
Procedure: Plasma glucose was measured on an automatic analyser (Synchron LX20 from Beckman Coulter) with a commercial kit (kit n°472500 from Beckman).
In a second series of experiments plasma glucose was assessed in lean mice fed with the standard diet and receiving (6 mice) or not (6 mice) 100 mg/kg/day of β-aminoisobutyric acid in the drinking water for 6 weeks, but at the end of the experiment, mice were not fasted. […] Indeed, plasma glucose was 11.5±0.8 and 10.7±0.4 mmol/L, respectively in control and treated mice.

[2] = Plasma lipids in Swiss mice fed with a western diet, 6 weeks, 48-hour fast; conditions: 100 mg/kg/day
Procedure: (§1) Plasma lipids (triglycerides, total cholesterol, phospholipids) were measured on an automatic analyser (Hitachi 717®). The commercial kits used to assess triglycerides, total cholesterol and phospholipids on this analyser were all from bioMérieux (references 61238, 61219 and 61491, respectively). Plasma non esterified fatty acids (NEFA) were assessed by using a commercial kit (Wako, reference 994-75409). Hepatic and plasma lipids were performed at the end of six weeks of treatment in animals that have been fasted for 48 hours. Triglycerides and HDL-cholesterol were also assessed after 2 months (in the fed state) or after 4 months of treatment (after an overnight fast).
Plasma lipids were assessed in mice fed with the western diet (WD) and receiving or not of 100 mg/kg/day of β-aminoisobutyric acid (BAIBA) in the drinking water (8 mice in each group). For comparison, the experiment also included a group of mice (n=8) fed with a standard diet (SD). These animals were those used for the determination of body fat by DEXA and liver lipids (see above, paragraph I-c and II-a, respectively). After the last DEXA measurement (after 6 weeks of treatment), mice were allowed to recover from the anaesthesia for ca. 2 days and were then submitted to a 48-hour period of fast. At the end of this fasting period, a sample of blood was collected (from the retroorbital sinus) […] and plasma triglycerides, phospholipids, total cholesterol and non-esterified fatty acids (NEFA) were subsequently determined. After 6 weeks, the western diet was responsible for an increase of all plasma lipids, but the most affected lipids were triglycerides.

[3] = Plasma lipids in ob/ob mice, 6 weeks, 15 hours overnight fast; conditions: 100 mg/kg/day 6 weeks, fasted 15 hours
Procedure: as §1
Plasma HDL-cholesterol and alanine aminotransferase (ALT) were measured on an automatic analyser (Olympus AU400®) with commercial kits (Olympus Diagnostica GmbH, references OSR6187 and OSR6107, respectively).
In a second series of experiments, plasma lipids were assessed in ob/ob mice fed with a standard diet and receiving or not of 100 mg/kg/day of β-aminoisobutyric acid (BAIBA) in the drinking water during 6 weeks, but at the end of the experiment mice were fasted for only 15 hours (i.e. for an overnight fast). Samples of blood were then collected in controls mice (n=4) and in mice treated with BAIBA (n=5) for the assessment of plasma triglycerides, total cholesterol and HDL-cholesterol. In this experiment, BAIBA decreased plasma triglycerides and total cholesterol by 10 and 8%, respectively. Indeed, plasma triglycerides were 1.35±0.07 and 1.22±0.06 mmol/L, respectively in control and treated ob/ob mice, whereas plasma total cholesterol was 6.78±0.51 and 6.24±0.11 mmol/L, respectively in control and treated mice. […] Indeed, HDL-cholesterol was 4.73±0.31 and 4.92±0.24 mmol/L, respectively in control and treated mice.

[4] = Body fat mass by DEXA in genetically obese ob/ob mice; conditions: 100 mg/kg/day
Source text: Six to 8 weeks old male (Crl:CD-1(ICR)BR) Swiss mice, and six to ten weeks old male RjOrl Swiss mice (i.e. lean mice) weighing 28 and 32 grams were purchased from Dépré (Saint Doulchard, France). Ten to 12 weeks old ob/ob male (C57BL/6-ob) mice (i.e. obese mice), weighing 40 to 44 grams were purchased from Janvier (Le-Genest-St-Isle, France). In one experiment, younger ob/ob mice (5-6 weeks old) weighing 25-26 grams were also studied. In genetically obese ob/ob mice, a mutation on the gene of leptin prevents the normal production of this hormone, thus increasing appetite and decreasing energy consumption (Friedman J. M., Halaas J. L., 1998, Nature 395 : 763-770). […] The animals were acclimatized for one to two weeks before the start of experiments.
D,L-β-Aminoisobutyric acid (BAIBA) was purchased from Sigma-Aldrich. BAIBA has been administered in drinking water at the dose of 100 mg/kg/day or 500 mg/kg/day for 6 weeks, 2 months or 4 months according to the experiments.
The in vivo determination of body fat mass in anesthetized mice has been performed by “DEXA” (Dual Energy X-ray Absorptiometry) (Pietriobelli A., Formica C., Wang Z., Heymsfield S. B., 1996, Am. J. Physiol. 271 (Endocrinol. Metab. 34): E941-E951)). […] It is noteworthy that DEXA also gives for each investigated animal its lean mass that is the total amount of water and proteins (in grams) in the body (excluding the head). Therefore, for a given animal, DEXA allows the determination of the percentage of body fat which is its body fat mass divided by the sum of its body lean and fat masses (fat mass/(lean mass+fat mass)). The “DEXA” apparatus was a Piximus® from Lunar Corporation (Madison, Wis.). Mice were anesthetized thanks to a mixture of xylazine and ketamine.
Procedure 1: the animals were not fasted before DEXA investigations. The first DEXA measurement was performed one day before the beginning of the investigation (T0). Afterwards, DEXA measurements have been respectively performed two weeks (T2) and six weeks (T6) after the beginning of the treatment. […]

Question: For `CC(CN)C(=O)O` (racemic) [BAIBA, D,L-β-Aminoisobutyric acid], which plasma glucose [1] is on record?
Answer: 10.7 ± 0.4 mmol/L

Question: And the “decrease of plasma NEFA” value [2]?
Answer: 16%

Question: And the “decrease of total cholesterol” value [2]?
Answer: 4%

Question: And the “plasma NEFA” value [2]?
Answer: 0.88 ± 0.06 mmol/L

Question: What about the plasma total cholesterol [2] of the same molecule?
Answer: 6.71 ± 0.27 mmol/L

Question: What about the plasma triglycerides [2] of the same molecule?
Answer: 1.54 ± 0.13 mmol/L

Question: And the “reduction of plasma triglycerides” value ([2]; not significant)?
Answer: 22%

Question: What about the HDL-cholesterol [3] of the same molecule?
Answer: 4.92 ± 0.24 mmol/L

Question: And the “decrease of plasma total cholesterol” value [3]?
Answer: 8%

Question: What about the “decrease of plasma triglycerides” value [3] of the same molecule?
Answer: 10%

Question: What about the plasma total cholesterol [3] of the same molecule?
Answer: 6.24 ± 0.11 mmol/L

Question: What about the plasma triglycerides [3] of the same molecule?
Answer: 1.22 ± 0.06 mmol/L

Question: And the “gain of body fat” value ([4]; 10-12 weeks old ob/ob mice, first two weeks)?
Answer: 4.65±0.35 grams

Question: What about the “reduction of body fat” value ([4]; 10-12 weeks old ob/ob mice, first two weeks, not significant) of the same molecule?
Answer: 11%

Question: What about the “gain of body fat” value ([4]; ob/ob mice, T0-T6) of the same molecule?
Answer: 7.30±0.61 grams
